The subject of one series is Rat Hepatocyte. The series can be described thus: Rat hepatocyte metabolism. Conditions: 24-hour incubation. Type of series: in vitro ADME.
Series [1] has as its system New Zealand White rabbits. In words: Acute non-GLP ocular toxicity / tolerability study. Type of series: in vivo. The method, then:
• An Acute Non-GLP Ocular Toxicity Study In New Zealand White Rabbits With P-1046
The purpose of this study was to evaluate the ocular tolerability and systemic exposure of P-1046, an inhibitor of the epithelial sodium channel (ENaC), when administered as a topical instillation to New Zealand white rabbits.
The test article (P-1046) were supplied as a light yellow white powder. The test articles were then prepared into dosing solutions for topical ocular application. Twenty-eight experimentally naïve male New Zealand White rabbits, approximately 4 months old at the outset of the study and weighing 2.6-3.1 kilograms at randomization were assigned to treatment groups as shown in the table below:
Animals were administered 50 μl of the test or control vehicle onto the globe of right eye and 50 μl of saline onto the globe of the left eye eight times (approximately one hour between each dose) in Groups 1 and 6 and four times (approximately two hours between each dose) in Group 7. Mortality and clinical observations were recorded daily. Body weights were recorded at randomization/selection and prior to sacrifice on Day 2. For blink rate assessment, eye blinks in the right eye only were counted for 3 minutes prior to treatment initiation and following all doses. Instances of wincing and pawing at the eyes during the 3-minute eye blink observation period were recorded as clinical observations. Food consumption was recorded daily. Eyes were scored according to Draize prior to treatment, following each dose and on Day 2 at approximately 24 hours post-dose. Blood for toxicokinetic evaluation was collected from animals in Group 2-7 at pre-dose, 30 minutes after the middle dose (4th dose in groups 3, 5, and 6; 2nd dose in groups 2, 4, and 7) and at 30, 60, 120 and 240 minutes following the final dose on Day 1. Blood samples for evaluation of serum chemistry parameters were collected prior to treatment initiation and at 120 and 240 min following the final dose. Urine samples were collected over a 4-hour period following the final dose. All animals were sacrificed following completion of study procedures on Day 2.

Setting [2] is: 10 mM x 8 doses and 30 mM x 4 doses, topical ocular, rabbit.

`CN(C)C(=O)[C@H](CCCCNC(=N)N)NC(=O)[C@H](CCc1ccc(CCCCNC(=N)NC(=O)c2nc(Cl)c(N)nc2N)cc1)N(C)C` [Compound I, 3,5-diamino-6-chloro-N-(N-(4-(4-((S)-3-(dimethylamino)-4-((S)-1-(dimethylamino)-6-guanidino-1-oxohexan-2-ylamino)-4-oxobutyl)phenyl)butyl)carbamimidoyl)pyrazine-2-carboxamide]: the “Rat Hepatocyte Metabolism” value in the series with Rat Hepatocyte is recorded as “No evidence of significant metabolism”. Further, the “Appearance of eyes on Day 2” value in series [1] (10 mM group) is on record as “appeared normal”. For the same compound, in series [1] (setting [2]), the Average blink rate entry is recorded as “only slight increases at some time points, similarly to vehicle treated animals” and the “Cumulative Draize scores (right eye)” value is given as “only slight increases in Draize scoring which are not greater than those observed for vehicle treated animals”. Moreover, in series [1] (10 and 30 mM), the “Post-dose conjunctival redness, severity and incidence” value is reported as “comparable to the vehicle controls”; the Stinging on instillation result is “do not cause stinging”. In addition, in series [1] (10 and 30 mM formulations), the Ocular tolerability result was “well tolerated”.

(Values after patent US10159672B2 (PARION SCIENCES, INC., priority 2011, dated 2018).)
